Experiments:
platelets in whole blood [1] = experiment: T2MR platelet-induced clot contraction with platelet agonist, uncoated polypropylene tube; format: cell-based, human
Source text: Platelet-induced clot contraction was used for measuring platelet activity and inhibition using a formulation of reptilase (RF), factor XIIIa (FXIIIa), and platelet agonist such as arachidonic acid (AA) or adenosine diphosphate (ADP). The RF and FXIIIa induce the formation of a fibrin mesh rapidly without activating platelets. This occurs rapidly as compared to clot contraction. In developing a platelet activity assay for the agonist arachidonic acid (AA) we were able to see reproducible […] signatures that titrated with the concentration of AA as expected ([…] curves acquired from whole blood with 0.5 mM, 1.0 mM, and 1.5 mM AA). In a typical clot contraction signal there is an upper […] signal that increases rapidly between 5 and 10 minutes and the appearance of a lower […] signal around the same point in time. The upper signal corresponds to water excreted from the clot and the lower signal corresponds to water trapped in the contracted clot. The lowest level has the slowest kinetics. […] In developing a platelet activity assay for the agonist ADP we encountered a problem with reproducibility. For example, in triplicate measures (3 samples obtained in parallel from freshly drawn blood) the clot contraction signal might appear for only one sample and/or the triplicate measures might vary in the signal intensity of the clot contraction signal. Reproducible results were obtained from AA, but not ADP. This is believed to result from the fact that AA is a stronger platelet activator than ADP. This conclusion is supported by the following observations. […] Second, aging the blood could lead to stronger clot contraction signals, presumably due to basal thrombin activation that led to more platelet induced clot contraction. Third, adding low levels of thrombin could lead to more platelet induced clot contraction. Therefore, there is a difference in the strength of platelet activation for AA and ADP.

[2] = test system: platelets in blood samples; experiment: T2MR ADP activation titration in Triton X-100 coated polypropylene tubes; format: cell-based, human; conditions: Triton X-100 coated tube
Method: Platelet-induced clot contraction was used for measuring platelet activity and inhibition using a formulation of reptilase (RF), factor XIIIa (FXIIIa), and platelet agonist such as arachidonic acid (AA) or adenosine diphosphate (ADP). The RF and FXIIIa induce the formation of a fibrin mesh rapidly without activating platelets. This occurs rapidly as compared to clot contraction. Briefly, blood samples were activated with varying levels of ADP in 0.2 mL polypropylene tubes coated with Triton X-100. […] Additionally, levels below […] are now able to show a clot contraction signal when the polypropylene surface is coated with Triton X-100. Furthermore, this signal is much stronger than that previously observed for ADP activated samples in polypropylene tubes without coating.

[3] = PT clotting time, T2MR and Stago; design: species or system human; conditions: spiked 10 ng/mL-1000 ng/mL
Method: Clotting times were measured by […] by first establishing a time zero T2 value (i.e., by taking the first point or some sort of average or linear fit to the first 5-10 data points) of the T2 time curve, and second identifying the time point (i.e., the clotting time or PT time) in the T2 time curve when the T2 value had changed by a predetermined amount (e.g. 5% or 10%) indicative of clotting in the sample. From the observed PT clotting time the INR was calculated using the methods described in Jan et al., Clin. Chem. 35:840 (1989). […] 18 normal samples and 24 abnormal samples were tested against a reference range established by 20 normal samples. Abnormal samples with prolonged PT times were obtained by spiking increasing levels of the anti-Xa inhibitor Rivaroxiban (10 ng/mL-1000 ng/mL). Correlation with TEG clotting time was obtained across >40 normal patient samples with non-optimized R2 correlation of >0.8. (see FIG. 14B). PT time correlations with Stago for plasma (see FIG. 14D) and with Hemochron for whole blood (see FIG. 14C) were also found.

platelets in whole blood [4] = conditions: 5-20 μM epinephrine
Method: A titration of epinephrine ranging from 5-20 μM was added to the activation cocktail (comprised of reptilase, factor XIIIa, calcium, and platelet activator). 4 μL of the activation cocktail was added to 36 μL of whole blood in a coated tube. The tube containing the reaction was placed in a T2MR reader. T2MR relaxation curve data was processed with an Inverse Laplace transformation algorithm.

platelet activity = experiment: T2MR platelet inhibition, heparin blood activated by AA+RF; format: cell-based, human; conditions: 600 μM aspirin ex vivo
Method: In this experiment platelet inhibition was monitored by the addition of 600 μM aspirin ex vivo to heparin blood prior to activation by AA+RF (samples were tested with and without aspirin). […] These studies confirmed that the clot signature was dependent on platelet activity.

platelets = experiment: Tube-dried collagen as platelet activator, T2MR; format: cell-based; conditions: 2 micrograms dried in microtube; whole blood and RBC-depleted plasma
Method: Collagen is a potent activator of platelets, and recognition of exposed collagen from the cellular matrix is one of the in vivo signals for platelet activation. […] To prepare the tube, 2 micrograms (2 μL of a 1 mg/ml solution) was deposited in the bottom of a microtube and the tube placed at 37° C. for 2-5 hours. A tube prepared in this way can be kept at room temperature or at 37° C. for several weeks. To measure a T2MR signature 34 μL of citrated whole blood (or RBC-depleted blood) were added to the tube at 37 degrees; after 1 minute 2 μL of 0.2M CaCl2 was added and the sample placed in the magnet for relaxation measurements and analysis.

[5] = T2MR fibrinogen assay with thrombin; design: species or system human; conditions: 45 μM MnSO4 in buffer diluent
Method: T2MR measures the formation of fibrin directly in the whole blood or plasma in the presence of thrombin. The solution of thrombin (STAGO, 5 U/mL) is added to the diluted solution of plasma (or blood) and the change in T2 signal is monitored. The sample begins to clot immediately upon addition of thrombin, resulting in a rapid decrease in T2 signal. In order to achieve better sample relaxation rate and reduce noise in the measured T2 signal the paramagnetic material (MnSO4) is added to the buffer diluent (STAGO, Owren-Koller buffer), with a final concentration of the MnSO4 in diluent of 45 μM. […] The buffer diluent containing paramagnetic material is used to prepare thrombin 5 U/mL stock by diluting 80 U/mL stock and to prepare standard dilutions for the calibration curve.

CCCCC/C=C\C/C=C\C/C=C\C/C=C\CCCC(=O)O [AA, arachidonic acid]
concentration that typically causes clot retraction (platelets in whole blood [1]): 0.5 to 1 mM
platelet-induced clot contraction (platelets in whole blood [1]; typical level of AA): strong platelet-induced clot contraction

Nc1ncnc2c1ncn2[C@@H]1O[C@H](COP(=O)(O)OP(=O)(O)O)[C@@H](O)[C@H]1O [ADP, adenosine diphosphate]
clot formation T2MR signal ([2]; 2.5 mM ADP): partial clot formation is observed
clot formation T2MR signal ([2]; 0.5 and 1 mM ADP): no clot formation signal is observed
clot formation T2MR signal ([2]; 5, 10, 20 mM ADP): complete clot formation is observed
clot retraction after gel phase (platelets in whole blood [1]; ADP activation): retraction does not occur
platelet-induced clot contraction (platelets in whole blood [1]; ten-fold excess (over standard levels) of ADP): weak and irreproducible platelet-induced clot contraction

O=C(NC[C@H]1CN(c2ccc(N3CCOCC3=O)cc2)C(=O)O1)c1ccc(Cl)s1 [Rivaroxiban]
PT times [3]: prolonged

CNC[C@H](O)c1ccc(O)c(O)c1 [epinephrine]
sample response (clot contraction) (platelets in whole blood [4]): responsive
timing of clot contraction (platelets in whole blood [4]): dose dependent

CC(=O)Oc1ccccc1C(=O)O [aspirin, acetylsalicylic acid]
clot-associated T2 signal (platelet activity): dramatically diminished or absent

collagen
T2MR clot peak (platelets): effectively generate a T2MR clot peak

O=S(=O)([O-])[O-].[Mn+2] [MnSO4]
effect on the clotting process [5]: no significant effect

From US9739733B2, “Methods for monitoring tight clot formation” (T2 Biosystems, Inc., priority 2012, dated 2017)
